The values below come from US20240317721A1, “PYRAZOLYL DERIVATIVES AS INHIBITORS OF THE KRAS MUTANT PROTEIN” (NOVARTIS AG, priority 2021, published 2024).

For the test, the target named is KRasG12C (M1-K169, biotinylated on the N-terminus) (Homo sapiens (Human), UniProt P01116, G12C). Put plainly: Covalent competition assay: scintillation proximity assay (SPA) quantifying covalent modification of KRASG12C. The test is classed as binding. Conditions: competition with radiolabeled covalent probe (Compound B/Compound A), 2 hours incubation, 10 nM KRasG12C. How it is done:
Cells were harvested by centrifugation and frozen at −80° C. until further processing. […] The cells were lysed by 4 passages through an Avestin Emulsiflex at about 20000 psi and insoluble debris removed by centrifugation and filtered through a 0.45 µm Durapore membrane (Millipore). […] Eluted protein fractions were analyzed by Novex NuPage 4-12% PAGE. […] The protein in the flow through was subjected to a final polishing step on a HiLoad 16/60 Superdex 200 prep grade size-exclusion column pre-equilibrated with SEC-buffer (20 mM HEPES pH 7.4, 150 mM NaCl, 5 mM MgCl2, 1 µM GDP). Positive fractions were determined by PAGE (Novex NuPage 4-12% BisTris) analysis.
A scintillation proximity assay (SPA) was used to determine the potency of the compounds.
This assay measures the ability of the test compound to compete with the radiolabeled covalent probe for binding to and covalently modify KRASG12C.
(see above for synthesis of Compound A and Compound B). A serial dilution of the compounds to be tested is mixed with a fixed concentration of the radiolabeled covalent probe before incubation with KRASG12C:GDP as described below. KRASG12C can either be bound by the radiolabeled covalent probe (Compound B), resulting in light being emitted from the beads, or bound by covalent test compound preventing signal generation.
A 1/20 isotopic dilution of labeled (Compound B) and non-labeled covalent (Compound A) probe was prepared and added to all wells on the plate. The reaction was started by addition of KRasG12C (M1-K169, biotinylated on the N-terminus) to the compounds and incubated for 2 hours with continuous agitation allowing for full modification of KRasG12C with probe or test compounds. Final concentrations in an assay volume of 40 μL were 10 nM KRasG12C, 25 nM radio-ligand and 475 nM unlabelled ligand. The assay buffer contained 20 mM Tris-HCl pH 7.5 (Invitrogen), 150 mM NaCl (Sigma Aldrich), 0.1 mM MgCl2 (Sigma Aldrich), and 0.01% Tween-20 (Sigma Aldrich). Following addition of 50 μL of a 400 μg/mL suspension of streptavidin-coated YSi beads (Perkin Elmer), plates were incubated for a further 30 min with continuous agitation before reading the plates on a scintillation counter (Topcount NXT 384 (Packard).
Evaluation was carried out using assay data analysis software (such as the standard Novartis in-house Helios software application, Novartis Institutes for BioMedical Research, unpublished) using the methods described in Formenko et al., Robust Regression for high-throughput screening, Computer Methods and Programs in Biomedicine, 2006, 82, 31-37. Following normalization of activity values for the wells to % inhibition (% inhibition=[(high control−sample)/(high control−low control)]×100), IC50 fitting was carried out from the duplicate determinations present on each plate according to Formenko et al., 2006.
Evaluation can also be carried out using commercially available software which is designed to derive IC50 values using 4-parameter fits (e.g. GraphPad Prism, XL fit).
On the technique in general: Scintillation proximity formats need no separation of bound from free tracer.
In the case of `C=CC(=O)N1CC2(CC(n3nc(N4CC[C@@H](CN5CC6CC(C5)N6C(C)=O)CC4(C)C)c(-c4c(Cl)c(Cl)cc5[nH]ncc45)c3C)C2)C1` (single isomer, unassigned) [Example 301a], the IC50 – broadly, the point on the concentration scale where inhibition reaches its midpoint – amounted to 1900 nM.

As to `C=CC(=O)N1CC2(CC(n3nc(N4CCN(CC(C)(C)O)CC45CCC5)c(-c4c(Cl)c(C)cc5[nH]nc(N)c45)c3C)C2)C1` (single isomer, unassigned) [Example 117a, 1-(6-(4-(3-amino-5-chloro-6-methyl-1H-indazol-4-yl)-3-(8-(2-hydroxy-2-methylpropyl)-5,8-diazaspiro[3.5]nonan-5-yl)-5-methyl-1H-pyrazol-1-yl)-2-azaspiro[3.3]heptan-2-yl)prop-2-en-1-one], the IC50 turned out to be 9 nM.

Consider `C=CC(=O)N1CC2(CC(n3nc(N4CCN(C5COC5)CC4(C)C)c(-c4c(Cl)c(C)cc5[nH]ncc45)c3C)C2)C1` (single isomer, unassigned) [Example 67b, 1-(6-(4-(5-chloro-6-methyl-1H-indazol-4-yl)-3-(2,2-dimethyl-4-(oxetan-3-yl)piperazin-1-yl)-5-methyl-1H-pyrazol-1-yl)-2-azaspiro[3.3]heptan-2-yl)prop-2-en-1-one], for which the IC50 was determined as 38 nM.

As for `C=CC(=O)N1CC2(CC(n3nc(N4CCc5c(cnn5C)C4)c(-c4c(Cl)c(C)cc5[nH]ncc45)c3C)C2)C1` (single isomer, unassigned) [Example 11b, 1-(6-(4-(5-chloro-6-methyl-1H-indazol-4-yl)-5-methyl-3-(1-methyl-1,4,6,7-tetrahydro-5H-pyrazolo[4,3-c]pyridin-5-yl)-1H-pyrazol-1-yl)-2-azaspiro[3.3]heptan-2-yl)prop-2-en-1-one], the IC50 is 120 nM. Take `C=CC(=O)N1CC2(CC(n3nc(N4CCN(C[C@@H]5COCCO5)CC45CCC5)c(-c4c(Cl)c(C)cc5[nH]ncc45)c3C)C2)C1` (single isomer, unassigned) [Example 169b]: the IC50 was found to be 12 nM. The result for `C=CC(=O)N1CC2(CC(n3nc(N4CC[C@@H](CN5CCN(C6COC6)CC5)CC4(C)C)c(-c4c(Cl)c(C)cc5[nH]ncc45)c3C)C2)C1` (single isomer, unassigned) [Example 246a] reads more than 5000 nM; that for `C=CC(=O)N1CC2(CC(n3nc(N4CC[C@@H](CN5CCN(C(C)=O)CC5)CC4(C)C)c(-c4c(Cl)c(Cl)cc5[nH]ncc45)c3C)C2)C1` (single isomer, unassigned) [Example 319b], 9 nM; that for `C=CC(=O)N1CC2(CC(n3nc(N4CCC(N(C)C(=O)COC)CC4(C)C)c(-c4c(Cl)c(C)cc5[nH]ncc45)c3C)C2)C1` (single isomer, unassigned) [Example 96b, N-(1-(1-(2-acryloyl-2-azaspiro[3.3]heptan-6-yl)-4-(5-chloro-6-methyl-1H-indazol-4-yl)-5-methyl-1H-pyrazol-3-yl)-2,2-dimethylpiperidin-4-yl)-2-methoxy-N-methylacetamide], 11 nM. The figure for `C=CC(=O)N1CC2(CC(n3nc(N4CC[C@@H](CN5CC6(CCN(C7COC7)C6)C5)CC4(C)C)c(-c4c(Cl)c(Cl)cc5[nH]ncc45)c3C)C2)C1` (single isomer, unassigned) [Example 267a] is 720 nM; for `C=CC(=O)N1CC2(CC(n3nc(N4CCN(C(C)=O)CC4)c(-c4c(Cl)ccc5[nH]ncc45)c3C)C2)C1C` (single isomer, unassigned) [Example 198b, 1-(6-(3-(4-acetylpiperazin-1-yl)-4-(5-chloro-1H-indazol-4-yl)-5-methyl-1H-pyrazol-1-yl)-1-methyl-2-azaspiro[3.3]heptan-2-yl)prop-2-en-1-one] it is more than 50000 nM. The result for `C=CC(=O)N1CC2(CC(n3nc(N4CC[C@@H](CN5CCP(C)(=O)CC5)CC4(C)C)c(-c4c(Cl)c(Cl)cc5[nH]ncc45)c3C)C2)C1` (single isomer, unassigned) [Example 269a] reads 4300 nM.
